Key:
[1] = test system: CCI-induced neuropathic pain rat model; assay: Analgesic effect on mechanical hyperalgesia (PWT) in CCI-induced neuropathic pain rat model; format: in vivo
Description: The chronic constriction nerve injury (CCI)-induced neuropathic pain rat model was built according to a published method (Bennett G J, et al. Pain, 1988). The experimental rats were anesthetized by intraperitoneal injection of 10 wt % chloral hydrate (300 mg/kg), and then placed on a super-clean bench, and the operation area was disinfected with iodophor.
The ligation tightness should be adjusted to cause slight twitching of a leg on an operated side of the rat without affecting the blood circulation of the epineurium. The wound was sutured layeredly and wiped with iodophor according to the postoperative situation. The rats were transferred back into a cage for rest upon fully recovering. The PWT was measured 5 days after modeling, where those with a significant lower PWT were considered as successful neuropathic pain rat models, and the undesirable rats were excluded.
(S1) A total of 15 healthy adult SD rats, weighing 180-220 g, were selected, numbered on tails and placed in the same cage.
(S2) The rats were raised in a measuring room for 2 h for adaptation.
The measurement was repeated 3-5 times for each rat at an interval of 5-10 min, and the results were averaged. Then the rats were allowed to rest for several hours and then adopted to build a CCI-induced neuropathic pain model.
(S4) The PWT was measured on the morning of the 3rd day and the 6th day after the modeling, and those unsuccessful models were removed. And on the 6th after the modeling, the successful rat models were randomly divided into 3 groups, where the group A was injected with normal saline; the group B was injected with 5 mg/kg of morphine; and the group C was intradermally injected with 8 μg/kg of the short peptide P10581 into the left hind paw. 1 h later, the PWT of each group was recorded when the left hind paw generated mechanical withdrawal. Each of the rats was measured 3-5 times at an interval of 5-10 min, and the PWTs were averaged as the actual PWT (unit: g). The drug injection was fixedly performed at 9:00 a.m. and 5:30 p.m. from the 6th day to the 14th day after modeling, and the PWT of each group was measured before and after administration every other day. On the 15th day after modeling, the group B was injected with 8 μg/kg of the short peptide P10581 and the group C was injected with 5 mg/kg of the morphine, and the PWT of the group B and group C was recorded when the mechanical withdrawal occurred to the left hind paw.
(1) 30 healthy adult SD rats, weighing 180-220 g, were selected to build a CCI-induced neuropathic pain model. On the 8th day after the modeling, successfully-established models were randomly divided into 6 groups, where the group A was injected with 0.45 μg/kg of the short peptide P10581; the group B was injected with 0.9 μg/kg of the short peptide P10581; the group C was injected with 1.8 μg/kg of the short peptide P10581; the group D was injected with 3.6 μg/kg of the short peptide P10581; the group E was injected with 7.2 μg/kg of the short peptide P10581; and the group F was injected with 8.5 μg/kg of the short peptide P10581. The PWT of each group was measured 1.5 h later.
(2) Each group was injected with 7.2 μg/kg of the short peptide P10581 at 5:30 p.m. on the 8th day after modeling, and then continuously injected from the 9th day to the 16th day 16 (injected with 7.2 μg/kg of the short peptide P10581 at 9:00 a.m. and 5:30 p.m. a day). The PWT of rats before and after administration in the morning was measured every other day.
(3) On the 17th day after modeling, the six groups were injected with different doses of the short peptide P10581, respectively, according to step (1). 1.5 h later, the PWT of each group was measured to evaluate the effect of dose.
(1) 15 healthy adult SD rats, weighing 180-220 g, were selected to build a CCI-induced neuropathic pain model.

[2] = test system: Carr-induced inflammatory pain rat model; assay: Analgesic effect on mechanical hyperalgesia (PWT) in Carr-induced inflammatory pain rat model; format: in vivo
Description: The mechanical hyperalgesia of rats was measured by 38500-pressure application measurement (PAM) system (Ugo Basile Biological Research Apparatus, Comerio-Varese, Italy), which consisted of a hand-held part and an integrated electronic part. The hand-held part was a force sensor which was designed according to a Randall-Selitto algesimeter. The integrated electronic part was configured to automatically record a maximum PWT applied to the left hind paw of the rats.
The Carr-induced inflammatory pain model was built according to a published method (Alessandri-Haber N, et al. Neurosci. Vol 29(19), pp. 6217-6288, 2009) for evaluating an analgesic effect of drugs administered by intraplantar injection. […] Those rats with a PWT lower than 100 gf were considered to be a desired Carr-induced inflammatory pain model, those rats with the PWT higher than 100 gf was removed.
(S1) A total of 18 healthy adult SD rats, weighing 180-220 g, were selected, numbered on tails and placed in the same cage.
(S2) The rats were maintained in a measuring room for 2 h for adaptation.
The measurement was repeated 3-5 times for each rat with an interval of 5-10 min. The results of multiple PWT measurements were averaged as the Baseline (BL) (unit: g). After that, 6 μL of 1 wt % Carr was intradermally injected into the plantar surface of the hind paw to build an inflammatory pain rat model.
(S4) The PWT of the left hind paw of each rat was measured 1 h after the Carr injection. Rats with a higher inflammatory threshold and rats with a lower inflammatory threshold were mixed and equally divided into three groups (group A, group B and group C), each for six rats, such that any two groups of rats had similar distribution of inflammatory threshold. The groups A, B and C were intradermally injected with normal saline, 5 mg/kg of morphine and 2 μg/kg of the short peptide P10581, respectively, at the plantar surface of the left hind paw. 1 h later, the PWT of the left hind paw of the rats in each group was measured 3-5 times at an interval of 5-10 min. The multiple PWT measurement results were averaged as the practical PWT (unit: g). Then the drug was injected every 2 h according to the above-mentioned administration dose and time, and the corresponding PWT was recorded (six injections in total).
(1) 24 healthy adult SD rats, weighing 180-220 g, were selected, reinjected with 6 μL of a 1 wt % Carr solution and divided into 4 groups randomly and averagely (i.e., groups A-D). The group A was injected with normal saline; the group B was intradermally injected with 0.1 μg/kg of the short peptide P10581 through the plantar surface of the left hind paw; the group C was intradermally injected with 0.1 μg/kg of the short peptide P10581 and then with 5 mg/kg of morphine 30 min later through the plantar surface of the left hind paw; and the group D was intradermally injected with 0.05 μg/kg of the short peptide P10581, and then with 5 mg/kg of morphine 30 min later through the plantar surface of the left hind paw. 1 h later, the PWT of each group was recorded when the mechanical withdrawal of the left hind paw occurred, and each rat was measured 3-5 times at an interval of 5-10 min.
(2) The drug was injected every 2 h according to the above-mentioned administration dose and time (seven times in total), and the PWT was recorded.
(S1) A total of 20 healthy adult SD rats (half male and half female), weighing 180-220 g, were selected, numbered on tails and transferred to the same cage.
(S4) The PWT of the left hind paw of each rat was measured 1 h after the Carr injection.

[3] = 8 μg/kg i.d., twice a day, repeated
[4] = 2 μg/kg i.d. plantar, every 2 h, six injections

Row | Compound | analgesic effect / tolerance after repeated injection ([1]; rat, in vivo) | analgesic effect of morphine after repeated P10581 ([1]; rat, in vivo) | analgesic effect / tolerance after repeated injection ([2]; rat, in vivo) | analgesic effect on neuropathic pain threshold, low dose ([1]; 0.1 μg/kg i.d., twice a day) | IC50 before vs after repeated administration ([1]; 7.2 μg/kg i.d. repeated (FIG. 8D)) | change of PWT after repeated high-dose administration ([1]; 7.2 μg/kg i.d., twice a day, 9 days, test doses 0.45-8.5 μg/kg) | analgesic effect in morphine-tolerant rats ([1]; 8 μg/kg i.d. on day 10 after repeated morphine 5 mg/kg) | analgesic effect on neuropathic pain [1, 3] | analgesic tolerance after repeated injection [1, 3] | administration dose at which analgesic effect reached the peak ([1]; neuropathic pain, i.d.) | analgesic effect on hyperalgesia, low dose ([2]; 0.1 μg/kg i.d., every 2 h, seven injections) | duration of analgesic effect ([2]; 2 μg/kg i.d. plantar, every 2 h) | analgesic effect on Carr-induced inflammatory pain threshold (PWT) [2, 4] | analgesic tolerance after repeated injection [2, 4]
1 | CN1CC[C@]23c4c5ccc(O)c4O[C@H]2[C@@H](O)C=C[C@H]3[C@H]1C5 [morphine, reference compound] | eventually lost the analgesic effect | the same analgesic effect was still kept | gradually declined analgesic effect with the increase in the number of injections | – | – | – | – | – | – | – | – | – | – | –
2 | WKCNPNDDKCCRPKLKC [P10581] | – | – | – | no effect on the threshold of neuropathic pain in rats | did not bring significant difference to the IC50 | no obvious change occurred to the PWT | neuropathic pain threshold of rats can be reversed | neuropathic pain was alleviated | no analgesic tolerance occurred | 7.2 µg/kg | no relieving effect on the hyperalgesia in rats | more than 12 h | completely reverse the Carr-induced inflammatory pain threshold | without developing the analgesic tolerance

Reference: patent US11612634B2 (priority 2020, dated 2023)
